Source: patent US20240051970A1, “COMPOUNDS AND COMPOSITIONS FOR TREATING CONDITIONS ASSOCIATED WITH STING ACTIVITY” (IFM Due, Inc., priority 2020, published 2024)

target: T1, hSTING (Homo sapiens, UniProt Q86WV6, G230A/H232R/R293Q/R71H); assay: STING reporter assay (luciferase) in THP1-Dual KO-IFNAR2 cells activated with 2'3'cGAMP; type: cell-based; conditions: 15 μM 2'3'cGAMP, 24 h
T1 construct: host or cells: THP1-Dual KO-IFNAR2 cells
Experimental: STING pathway activation by the compounds described herein was measured using THP1-Dual™ cells (KO-IFNAR2).
THP1-Dual™ KO-IFNAR2 Cells (obtained from invivogen) were maintained in RPMI, 10% FCS, 5 ml P/S, 2 mM L-glut, 10 mM Hepes, and 1 mM sodium pyruvate. Compounds were spotted in empty 384 well tissue culture plates (Greiner 781182) by Echo for a final concentration of 0.0017-100 μM. Cells were plated into the TC plates at 40 μL per well, 2×10E6 cells/mL. For activation with STING ligand, 2′3′cGAMP (MW 718.38, obtained from Invivogen), was prepared in Optimem media.
The following solutions were prepared for each 1×384 plate: • Solution A: 2 mL Optimem with one of the following stimuli: • 60 μL of 10 mM 2′3′cGAMP 4 150 μM stock • Solution B: 2 mL Optimem with 60 μL Lipofectamine 2000 4 Incubate 5 min at RT
2 mL of solution A and 2 ml Solution B was mixed and incubated for 20 min at room temperature (RT). 20 μL of transfection solution (A+B) was added on top of the plated cells, with a final 2′3′cGAMP concentration of 15 μM. The plates were then centrifuged immediately at 340 g for 1 minute, after which they were incubated at 37° C., 5% CO2, >98% humidity for 24 h. Luciferase reporter activity was then measured. EC50 values were calculated by using standard methods known in the art.
Luciferase reporter assay: 10 μL of supernatant from the assay was transferred to white 384-plate with flat bottom and squared wells. One pouch of QUANTI-Luc™ Plus was dissolved in 25 mL of water. 100 μL of QLC Stabilizer per 25 mL of QUANTI-Luc™ Plus solution was added. 50 μL of QUANTI-Luc™ Plus/QLC solution per well was then added. Luminescence was measured on a Platereader (e.g., Spectramax I3X (Molecular Devices GF3637001)).
Luciferase reporter activity was then measured. EC50 values were calculated by using standard methods known in the art.

T1 sequence (Q86WV6 whole entry R71H/G230A/H232R/R293Q): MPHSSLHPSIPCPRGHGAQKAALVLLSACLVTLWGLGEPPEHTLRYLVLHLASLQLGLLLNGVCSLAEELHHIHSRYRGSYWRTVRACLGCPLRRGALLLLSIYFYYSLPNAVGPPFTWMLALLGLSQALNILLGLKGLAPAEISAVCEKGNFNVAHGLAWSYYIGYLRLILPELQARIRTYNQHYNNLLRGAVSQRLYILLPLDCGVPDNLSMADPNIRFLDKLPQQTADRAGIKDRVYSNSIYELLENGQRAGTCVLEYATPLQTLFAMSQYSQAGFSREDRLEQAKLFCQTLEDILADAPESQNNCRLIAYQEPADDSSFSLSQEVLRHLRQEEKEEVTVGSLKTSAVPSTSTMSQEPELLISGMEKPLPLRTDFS

First: COCCn1c(Nc2cc(Cl)c3cc[nH]c3c2)nc2cc(Cl)c(Cl)cc21 [Compound 104, 5,6-dichloro-N-(4-chloro-1H-indol-6-yl)-1-(2-methoxyethyl)-1H-benzo[d]imidazol-2-amine]
Second: Cn1c(Nc2cc(Cl)c3cc[nH]c3c2)nc2cc(Cl)c(Cl)cc21 [Compound 109, 5,6-dichloro-N-(4-chloro-1H-indol-6-yl)-1-methyl-1H-benzo[d]imidazol-2-amine]
The EC50 of the first is higher: 1 to 5 µM for the first, 0.2 to 1 µM for the second. The second is the more potent here.

First: Fc1cc(Nc2nc3cc(Cl)c(Cl)cc3[nH]2)cc2[nH]ccc12 [Compound 105, 5,6-dichloro-N-(4-fluoro-1H-indol-6-yl)-1H-benzo[d]imidazol-2-amine]
Second: Clc1cc2nc(Nc3cc(Cl)c4cc[nH]c4c3)[nH]c2cc1Cl [Compound 110, 5,6-dichloro-N-(4-chloro-1H-indol-6-yl)-1H-benzo[d]imidazol-2-amine]
The EC50 of the first is higher: 0.2 to 1 µM for the first, 0.04 to 0.2 µM for the second.

Clc1ccc2c(c1)nc(Nc1cc(Cl)c3cc[nH]c3c1)n2Cc1ccccc1 [Compound 106, 1-benzyl-5-chloro-N-(4-chloro-1H-indol-6-yl)-1H-benzo[d]imidazol-2-amine] and Clc1ccc2c(c1)nc(Nc1cc(Cl)c3cc[nH]c3c1)n2CCc1ccccc1 [Compound 107, 5-chloro-N-(4-chloro-1H-indol-6-yl)-1-phenethyl-1H-benzo[d]imidazol-2-amine] fall in the same range of EC50: 1 to 5 µM for the first, 1 to 5 µM for the second.

Clc1cc(Nc2nc3ccc(C4CCC4)cc3[nH]2)cc2[nH]ccc12 [Compound 108, N-(4-chloro-1H-indol-6-yl)-6-cyclobutyl-1H-benzo[d]imidazol-2-amine] and Clc1cc(Nc2nc3cc(C4CCCOC4)ccc3[nH]2)cc2[nH]ccc12 (stereo not shown) [Compound 141, N-(4-chloro-1H-indol-6-yl)-5-(oxan-3-yl)-1H-1,3-benzodiazol-2-amine] fall in the same range of EC50: 0.2 to 1 µM for the first, 0.2 to 1 µM for the second.

FC(F)(F)c1cc2[nH]c(Nc3cc(Cl)c4cc[nH]c4c3)nc2cn1 [Compound 111, N-(4-chloro-1H-indol-6-yl)-6-(trifluoromethyl)-1H-imidazo[4,5-c]pyridin-2-amine] and FC(F)(F)c1cnc2nc(Nc3cc(Cl)c4cc[nH]c4c3)[nH]c2c1 [Compound 112, N-(4-chloro-1H-indol-6-yl)-6-(trifluoromethyl)-1H-imidazo[4,5-b]pyridin-2-amine] fall in the same range of EC50: 0.2 to 1 µM for the first, 0.2 to 1 µM for the second.

Compared with Cn1c(Nc2cc(Cl)c3cc[nH]c3c2)nc2cc(C(F)(F)F)ccc21 [Compound 113, N-(4-chloro-1H-indol-6-yl)-1-methyl-5-(trifluoromethyl)-1H-benzo[d]imidazol-2-amine], Cn1c(Nc2ccc3cc[nH]c3c2)nc2cc(C(F)(F)F)ccc21 [Compound 121, N-(1H-indol-6-yl)-1-methyl-5-(trifluoromethyl)-1H-benzo[d]imidazol-2-amine] is lower in EC50: 1 to 5 µM for the first, 0.2 to 1 µM for the second.

Cn1c(Nc2ccc3cc[nH]c3c2)nc2ccc(C(F)(F)F)cc21 [Compound 114, N-(1H-indol-6-yl)-1-methyl-6-(trifluoromethyl)-1H-benzo[d]imidazol-2-amine] and CCn1c(Nc2ccc3cc[nH]c3c2)nc2cc(C(F)(F)F)ccc21 [Compound 122, 1-ethyl-N-(1H-indol-6-yl)-5-(trifluoromethyl)-1H-benzo[d]imidazol-2-amine] fall in the same range of EC50: 1 to 5 µM for the first, 1 to 5 µM for the second.

Fc1ccc2nc(Nc3cc(Cl)c4cc[nH]c4c3)[nH]c2c1 [Compound 115, N-(4-chloro-1H-indol-6-yl)-6-fluoro-1H-benzo[d]imidazol-2-amine] and Clc1ccc2[nH]c(Nc3cc(Cl)c4cc[nH]c4c3)nc2c1 [Compound 117, 5-chloro-N-(4-chloro-1H-indol-6-yl)-1H-benzo[d]imidazol-2-amine] fall in the same range of EC50: 0.2 to 1 µM for the first, 0.2 to 1 µM for the second.

N#Cc1ccc2[nH]c(Nc3cc(Cl)c4cc[nH]c4c3)nc2c1 [Compound 116, 2-((4-chloro-1H-indol-6-yl)amino)-1H-benzo[d]imidazole-5-carbonitrile] and Cc1ccc2[nH]c(Nc3cc(Cl)c4cc[nH]c4c3)nc2c1 [Compound 118, N-(4-chloro-1H-indol-6-yl)-5-methyl-1H-benzo[d]imidazol-2-amine] fall in the same range of EC50: 0.2 to 1 µM for the first, 0.2 to 1 µM for the second.

Clc1cc(Nc2nc3cc(Br)ccc3[nH]2)cc2[nH]ccc12 [Compound 119, 5-bromo-N-(4-chloro-1H-indol-6-yl)-1H-benzo[d]imidazol-2-amine] and FC(F)(F)c1ccc2[nH]c(Nc3cc(Cl)c4cc[nH]c4c3)nc2c1 [Compound 120, N-(4-chloro-1H-indol-6-yl)-5-(trifluoromethyl)-1H-benzo[d]imidazol-2-amine] fall in the same range of EC50: 0.2 to 1 µM for the first, 0.2 to 1 µM for the second.

First: FC(F)(F)c1ccc2[nH]c(Nc3ccc4cc[nH]c4c3)nc2c1 [Compound 123, N-(1H-indol-6-yl)-5-(trifluoromethyl)-1H-benzo[d]imidazol-2-amine]
Second: FC(F)(F)C1CCC(c2ccc3[nH]c(Nc4cc(Cl)c5cc[nH]c5c4)nc3c2)CC1 (stereo not shown) [Compound 142, N-(4-chloro-1H-indol-6-yl)-5-[4-(trifluoromethyl)cyclohexyl]-1H-1,3-benzodiazol-2-amine]
The EC50 of the first is lower: 0.2 to 1 µM for the first, 1 to 5 µM for the second.

CC(C)(C)C1CCC(c2ccc3[nH]c(Nc4cc(Cl)c5cc[nH]c5c4)nc3c2)CC1 (stereo not shown) [Compound 136, 5-(4-tert-butylcyclohexyl)-N-(4-chloro-1H-indol-6-yl)-1H-1,3-benzodiazol-2-amine] and OC1CCC(c2ccc3[nH]c(Nc4cc(Cl)c5cc[nH]c5c4)nc3c2)CC1 (stereo not shown) [Compound 139, 4-{2-[(4-chloro-1H-indol-6-yl)amino]-1H-1,3-benzodiazol-5-yl}cyclohexan-1-ol] fall in the same range of EC50: 1 to 5 µM for the first, 1 to 5 µM for the second.

First: CCOC(=O)C1CCC(c2ccc3[nH]c(Nc4cc(Cl)c5cc[nH]c5c4)nc3c2)CC1 (stereo not shown) [Compound 138, ethyl 4-{2-[(4-chloro-1H-indol-6-yl)amino]-1H-1,3-benzodiazol-5-yl}cyclohexane-1-carboxylate]
Second: CC1(C)CC(c2ccc3[nH]c(Nc4cc(Cl)c5cc[nH]c5c4)nc3c2)CC(C)(C)O1 [Compound 143, N-(4-chloro-1H-indol-6-yl)-5-(2,2,6,6-tetramethyloxan-4-yl)-1H-1,3-benzodiazol-2-amine]
The EC50 of the first is lower: 1 to 5 µM for the first, 5 to 100 µM for the second. The first is the more potent here.

Compared with CC(C)(C)OC(=O)N1C2C=C(c3ccc4[nH]c(Nc5cc(Cl)c6cc[nH]c6c5)nc4c3)CC1CC2 (stereo not shown) [Compound 140, tert-butyl 3-{2-[(4-chloro-1H-indol-6-yl)amino]-1H-1,3-benzodiazol-5-yl}-8-azabicyclo[3.2.1]oct-2-ene-8-carboxylate], Cn1ccc(-c2ccc3[nH]c(Nc4cc(Cl)c5cc[nH]c5c4)nc3c2)n1 [Compound 144, N-(4-chloro-1H-indol-6-yl)-5-(1-methyl-1H-pyrazol-3-yl)-1H-1,3-benzodiazol-2-amine] is lower in EC50: 1 to 5 µM for the first, 0.2 to 1 µM for the second.

First: Clc1cc(Nc2nc3cc(-c4ccc(CN5CCOCC5)s4)ccc3[nH]2)cc2[nH]ccc12 [Compound 145, N-(4-chloro-1H-indol-6-yl)-5-{5-[(morpholin-4-yl)methyl]thiophen-2-yl}-1H-1,3-benzodiazol-2-amine]
Second: Clc1cc(Nc2nc3cc(-c4ccc(N5CCCC5)nc4)ccc3[nH]2)cc2[nH]ccc12 [Compound 146, N-(4-chloro-1H-indol-6-yl)-5-[6-(pyrrolidin-1-yl)pyridin-3-yl]-1H-1,3-benzodiazol-2-amine]
The EC50 of the first is lower: 0.2 to 1 µM for the first, 1 to 5 µM for the second. The first is the more potent here.

For CN(C)CCn1cc(-c2ccc3[nH]c(Nc4cc(Cl)c5cc[nH]c5c4)nc3c2)cn1 [Compound 147, N-(4-chloro-1H-indol-6-yl)-5-{1-[2-(dimethylamino)ethyl]-1H-pyrazol-4-yl}-1H-1,3-benzodiazol-2-amine], the EC50 was 5 to 100 µM.
